Reference: the NIST ThermoML archive (doi:10.1016/j.tca.2014.06.031)

Test: xn = mol fraction of the nth substance listed
Details: 101 kPa, Liquid; for speed of sound: Frequency=3 MHz, Sing-around technique in a fixed-path interferometer; for mass density: Vibrating tube method

CCCCC(=O)O [pentanoic acid] + CCCC(=O)O
Details | mass density, 293.15 K [kg/m3] | mass density, 298.15 K [kg/m3] | mass density, 303.15 K [kg/m3] | mass density, 308.15 K [kg/m3] | speed of sound, 293.15 K [m/s] | speed of sound, 298.15 K [m/s] | speed of sound, 303.15 K [m/s] | speed of sound, 308.15 K [m/s]
x2 = 0 | 939.41 | 934.85 | 930.29 | 925.73 | 1234 | 1216 | 1197.9 | 1179.9
x2 = 0.0472 | 940.14 | 935.55 | 930.96 | 926.37 | 1232.3 | 1214.3 | 1196.2 | 1178.2
x2 = 0.0938 | 940.86 | 936.26 | 931.65 | 927.04 | 1230.6 | 1212.6 | 1194.5 | 1176.5
x2 = 0.1944 | 942.46 | 937.82 | 933.18 | 928.53 | 1226.9 | 1208.9 | 1190.7 | 1172.7
x2 = 0.2928 | 944.08 | 939.4 | 934.73 | 930.05 | 1223.3 | 1205.2 | 1187 | 1168.9
x2 = 0.3946 | 945.82 | 941.11 | 936.39 | – | 1219.5 | 1201.4 | 1183.1 | 1164.9
x2 = 0.4922 | 947.56 | 942.81 | 938.05 | – | 1215.8 | 1197.6 | 1179.3 | 1161
x2 = 0.5938 | 949.45 | 944.66 | 939.87 | – | 1211.9 | 1193.6 | 1175.2 | 1156.9
x2 = 0.6929 | 951.38 | 946.54 | 941.71 | – | 1208 | 1189.7 | 1171.2 | 1152.9
x2 = 0.7973 | 953.48 | 948.6 | 943.73 | – | 1203.8 | 1185.4 | 1166.9 | 1148.5
x2 = 0.895 | 955.52 | 950.6 | 945.68 | – | 1199.9 | 1181.4 | 1162.8 | 1144.3
